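Cultured in 96-well plates, cells were exposed to test compound for 48 hours across five concentrations. Here, GI50 denotes the concentration required for 50% inhibition of growth.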 Calls of active or inactive are those of the source. Cut-off read from the data, not from the text of the source: active = GI50 up to about 1.1 µM and inactive = higher.
How the values were obtained:
Experiment in all cases: NCI anticancer screen, dose series, 48 h
CAKI-1 = test system: CAKI-1
UACC-62 = test system: UACC-62
HCT-116 = test system: HCT-116
UACC-257 = test system: UACC-257
NCI-H460 = test system: NCI-H460
SF-539 = test system: SF-539
HCT-15 = test system: HCT-15
SW-620 = test system: SW-620
SK-OV-3 = test system: SK-OV-3
HT-29 = test system: HT-29
HOP-62 = test system: HOP-62
RXF 393 = test system: RXF 393
M19-MEL = test system: M19-MEL
KM12 = test system: KM12
U-251 = test system: U-251
CCRF-CEM = test system: CCRF-CEM
EKVX = test system: EKVX

SMILES | GI50 (CAKI-1) | GI50 (UACC-62) | GI50 (HCT-116) | GI50 (UACC-257) | GI50 (NCI-H460) | GI50 (SF-539) | GI50 (HCT-15) [µM] | GI50 (SW-620) | GI50 (SK-OV-3) | GI50 (HT-29) | GI50 (HOP-62) | GI50 (RXF 393) | GI50 (M19-MEL) | GI50 (KM12) | GI50 (U-251) | GI50 (CCRF-CEM) | GI50 (EKVX)
C/C(=C\CBr)CCC(Br)C(C)(C)Cl (configuration not stated) | > 100 µM (inactive) | > 100 µM (inactive) | > 100 µM (inactive) | > 100 µM (inactive) | > 100 µM (inactive) | > 100 µM (inactive) | > 100 | > 100 µM (inactive) | > 100 µM (inactive) | > 100 µM (inactive) | > 100 µM (inactive) | > 100 µM (inactive) | > 100 µM (inactive) | > 100 µM (inactive) | > 100 µM (inactive) |  | 
COc1ccc(-c2oc(/C=N/NC(N)=S)c([N+](=O)[O-])c2-c2ccc(OC)c(OC)c2)cc1OC | 32.1 µM (inactive) | 20.1 µM (inactive) | 19.2 µM (inactive) | 31.8 µM (inactive) |  | 25.4 µM (inactive) | 29.4 | 33.1 µM (inactive) | 21 µM (inactive) | 23.1 µM (inactive) | 28 µM (inactive) | 13.2 µM (inactive) | 24.2 µM (inactive) |  |  | > 10 µM (inactive) | 22.8 µM (inactive)
O=S1(=O)[C@H](c2ccccc2)c2c(-c3ccccc3)sc(-c3ccccc3)c2[C@@H]1c1ccccc1 | > 100 µM (inactive) | > 100 µM (inactive) |  | > 100 µM (inactive) | > 100 µM (inactive) | > 100 µM (inactive) | > 100 | > 100 µM (inactive) | > 100 µM (inactive) | > 100 µM (inactive) | > 100 µM (inactive) | 39.8 µM (inactive) | > 100 µM (inactive) | > 100 µM (inactive) | > 100 µM (inactive) | > 100 µM (inactive) | > 100 µM (inactive)
COc1ccc2c3c(c(C(=O)c4ccccc4)oc13)CCC2 | > 100 µM (inactive) | > 100 µM (inactive) | > 100 µM (inactive) | > 100 µM (inactive) | > 100 µM (inactive) | > 100 µM (inactive) | > 100 | > 100 µM (inactive) | > 100 µM (inactive) | 79.4 µM (inactive) | > 100 µM (inactive) | 17.5 µM (inactive) | > 100 µM (inactive) |  | > 100 µM (inactive) | > 100 µM (inactive) | > 100 µM (inactive)
CNC(=O)OCc1cc2ccncc2c2c1[nH]c1ccccc12 | 3.21 µM (inactive) | > 100 µM (inactive) | 5.16 µM (inactive) | > 100 µM (inactive) | > 20.7 µM (inactive) | > 42.6 µM (inactive) | > 23.8 | 6.01 µM (inactive) |  | > 25.5 µM (inactive) | 10 µM (inactive) | 2.55 µM (inactive) | > 100 µM (inactive) | 5.09 µM (inactive) | > 39.7 µM (inactive) | 7.4 µM (inactive) | > 100 µM (inactive)
CCOC(=O)C(=O)Nc1c(C)cccc1C(C)(C)C | > 100 µM (inactive) | > 100 µM (inactive) | > 100 µM (inactive) | > 100 µM (inactive) | > 100 µM (inactive) | > 100 µM (inactive) | > 100 | > 100 µM (inactive) | > 100 µM (inactive) | > 100 µM (inactive) | > 100 µM (inactive) | > 100 µM (inactive) | > 100 µM (inactive) | > 100 µM (inactive) | > 100 µM (inactive) |  | > 100 µM (inactive)
C=C(C)C12CC3CC(/C(=N/O)C(C1)/C3=N\O)[C@@]2(C)O (some centres not stated) | > 100 µM (inactive) | > 100 µM (inactive) | > 100 µM (inactive) | > 100 µM (inactive) | > 100 µM (inactive) | > 100 µM (inactive) | > 100 | > 100 µM (inactive) | > 100 µM (inactive) | > 100 µM (inactive) | > 100 µM (inactive) | > 100 µM (inactive) | > 100 µM (inactive) |  | > 100 µM (inactive) | > 100 µM (inactive) | > 100 µM (inactive)
O=C(c1ccc(Cl)cc1)c1ccc(OCCSCCCCCCCCCCSCCOc2ccc(C(=O)c3ccc(Cl)cc3)cc2)cc1 | > 100 µM (inactive) | > 100 µM (inactive) |  | > 100 µM (inactive) | > 100 µM (inactive) |  | > 100 | > 100 µM (inactive) | > 100 µM (inactive) | > 100 µM (inactive) | > 100 µM (inactive) | > 100 µM (inactive) | > 100 µM (inactive) | > 100 µM (inactive) | > 100 µM (inactive) | > 100 µM (inactive) | > 100 µM (inactive)
CCOc1ccc2c(c1)[n+]([O-])c(-c1ccc([N+](=O)[O-])cc1)c(N)[n+]2[O-] | > 100 µM (inactive) |  | 62.2 µM (inactive) | > 100 µM (inactive) | > 100 µM (inactive) | > 100 µM (inactive) |  | > 100 µM (inactive) | > 100 µM (inactive) | > 100 µM (inactive) | > 100 µM (inactive) | > 100 µM (inactive) | > 100 µM (inactive) | > 100 µM (inactive) | > 100 µM (inactive) | 49.7 µM (inactive) | > 100 µM (inactive)
CC(C)(C)OC(=O)NC1CCC[C@H]1O (some centres not stated) | > 100 µM (inactive) | > 100 µM (inactive) | > 100 µM (inactive) | > 100 µM (inactive) | > 100 µM (inactive) | > 100 µM (inactive) |  | > 100 µM (inactive) | > 100 µM (inactive) | > 100 µM (inactive) | > 100 µM (inactive) | > 100 µM (inactive) | > 100 µM (inactive) | > 100 µM (inactive) | > 100 µM (inactive) | > 100 µM (inactive) | > 100 µM (inactive)
CCCCc1c2c(nc3c1CC/C(=C\c1ccc([N+](=O)[O-])cc1)C3=O)CCCC2 |  | 1.61 µM (inactive) | 1.8 µM (inactive) | 2.3 µM (inactive) | 1.57 µM (inactive) | 1.79 µM (inactive) | 0.312 | 1.69 µM (inactive) | 2.15 µM (inactive) | 1.33 µM (inactive) | 1.73 µM (inactive) | 1.3 µM (inactive) | 2.29 µM (inactive) | 1.7 µM (inactive) | 1.59 µM (inactive) | 1.46 µM (inactive) | 11.4 µM (inactive)
COc1ccc(C(=O)C(CO)Oc2ccccc2OC)cc1OC (configuration not stated) | > 100 µM (inactive) | > 100 µM (inactive) | > 100 µM (inactive) | > 100 µM (inactive) | > 100 µM (inactive) | > 100 µM (inactive) | > 100 | > 100 µM (inactive) | > 100 µM (inactive) | > 100 µM (inactive) | > 100 µM (inactive) |  | > 100 µM (inactive) | > 100 µM (inactive) | > 100 µM (inactive) | > 100 µM (inactive) | > 100 µM (inactive)
O=C(NC1CCCCC1)c1c(O)[nH]c(=S)[nH]c1=O | > 100 µM (inactive) | > 100 µM (inactive) | > 100 µM (inactive) | > 100 µM (inactive) | 57 µM (inactive) | > 100 µM (inactive) | > 100 | > 100 µM (inactive) | > 100 µM (inactive) | > 100 µM (inactive) | > 100 µM (inactive) |  | > 100 µM (inactive) | > 100 µM (inactive) | 88.5 µM (inactive) | > 100 µM (inactive) | 
